Laboratory results from ChEMBL document CHEMBL5053503 (J Med Chem, 2021).
Calls of active or inactive are those of the source. The calls are words filed in the database; no cut-off is given here.

Key:
[1] = target: T1, 5-hydroxytryptamine receptor 3A (Homo sapiens) (UniProt P46098); assay: Displacement of [3H]BRL43694 from human recombinant 5-HT3 receptor expressed in CHO cells at 10 uM measured after 120 mins by radioligand completion assay relative to control; format: cell-based
T1 sequence (whole entry): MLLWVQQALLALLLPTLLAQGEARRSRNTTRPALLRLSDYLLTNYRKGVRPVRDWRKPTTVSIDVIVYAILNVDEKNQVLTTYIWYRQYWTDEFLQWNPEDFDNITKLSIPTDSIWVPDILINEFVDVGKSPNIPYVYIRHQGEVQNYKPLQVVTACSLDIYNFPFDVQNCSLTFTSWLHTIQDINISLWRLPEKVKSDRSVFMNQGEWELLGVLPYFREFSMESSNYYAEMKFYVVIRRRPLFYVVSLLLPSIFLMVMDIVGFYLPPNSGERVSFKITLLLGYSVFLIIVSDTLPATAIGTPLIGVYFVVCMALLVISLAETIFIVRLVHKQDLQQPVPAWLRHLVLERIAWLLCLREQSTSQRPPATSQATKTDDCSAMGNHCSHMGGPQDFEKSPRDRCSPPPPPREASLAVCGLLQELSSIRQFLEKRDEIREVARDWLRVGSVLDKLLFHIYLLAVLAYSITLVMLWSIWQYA

[2] = target: T2, 5-hydroxytryptamine receptor 1A (Homo sapiens) (UniProt P08908); assay: Displacement of [3H][…] from human recombinant 5-HT1A receptor expressed in cells at 10 uM measured after 60 to 90 mins by radioligand completion assay relative to control; format: cell-based; conditions: time 60-90 min
T2 sequence (whole entry): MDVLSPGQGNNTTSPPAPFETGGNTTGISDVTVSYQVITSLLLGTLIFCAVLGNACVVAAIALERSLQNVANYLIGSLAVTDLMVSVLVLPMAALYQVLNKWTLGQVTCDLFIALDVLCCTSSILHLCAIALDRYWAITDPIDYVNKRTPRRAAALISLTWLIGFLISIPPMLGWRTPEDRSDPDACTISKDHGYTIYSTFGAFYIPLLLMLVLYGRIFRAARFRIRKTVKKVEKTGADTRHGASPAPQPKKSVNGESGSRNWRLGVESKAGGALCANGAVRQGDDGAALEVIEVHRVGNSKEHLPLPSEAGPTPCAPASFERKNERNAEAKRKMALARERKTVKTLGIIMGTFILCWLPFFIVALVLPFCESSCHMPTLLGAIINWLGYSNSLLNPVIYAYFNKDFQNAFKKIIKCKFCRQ

[3] = target: T3, 5-hydroxytryptamine receptor 2B (Homo sapiens, UniProt P41595); assay: Displacement of [125I](+/-)DOI from human recombinant 5-HT2B receptor expressed in CHO cells at 100 nM measured after 60 mins by radioligand completion assay relative to control; format: cell-based
[4] = target: 5-hydroxytryptamine receptor 1B (Rattus norvegicus) (UniProt P28564); assay: Displacement of [125I]CYP from rat cerebral cortex 5-HT1B receptor at 10 uM measured after 120 mins by radioligand completion assay relative to control; format: tissue-based
[5] = target: T4, 5-hydroxytryptamine receptor 2A (Homo sapiens, UniProt P28223); assay: Displacement of [125I](+/-)DOI from human recombinant 5-HT2A receptor expressed in HEK293 cells at 10 uM measured after 60 to 90 mins by radioligand completion assay relative to control; format: cell-based; conditions: time 60-90 min
[6] = target: T3, 5-hydroxytryptamine receptor 2B; assay: Displacement of [125I](+/-)DOI from human recombinant 5-HT2B receptor expressed in CHO cells at 10 uM measured after 60 mins by radioligand completion assay relative to control; format: cell-based
[7] = target: T5, 5-hydroxytryptamine receptor 2C (Homo sapiens) (UniProt P28335); assay: Displacement of [125I](+/-)DOI from human recombinant 5-HT2C receptor expressed in CHO cells at 10 uM measured after 60 mins by radioligand completion assay relative to control; format: cell-based
T5 sequence (whole entry): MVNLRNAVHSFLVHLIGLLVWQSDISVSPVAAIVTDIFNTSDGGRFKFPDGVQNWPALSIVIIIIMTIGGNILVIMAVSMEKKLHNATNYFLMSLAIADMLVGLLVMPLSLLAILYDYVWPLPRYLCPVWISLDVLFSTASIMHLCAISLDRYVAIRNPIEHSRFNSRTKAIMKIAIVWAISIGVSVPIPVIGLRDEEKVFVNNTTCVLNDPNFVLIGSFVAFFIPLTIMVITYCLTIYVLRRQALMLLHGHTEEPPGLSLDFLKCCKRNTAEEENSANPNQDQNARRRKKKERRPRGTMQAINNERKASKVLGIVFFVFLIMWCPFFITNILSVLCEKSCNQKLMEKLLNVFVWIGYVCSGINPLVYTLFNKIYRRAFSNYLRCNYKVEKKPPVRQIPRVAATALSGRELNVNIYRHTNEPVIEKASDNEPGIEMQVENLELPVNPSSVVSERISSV

[8] = target: T1, 5-hydroxytryptamine receptor 3A (Homo sapiens); assay: Displacement of [3H]BRL43694 from human recombinant 5-HT3 receptor expressed in CHO cells at 100 nM measured after 120 mins by radioligand completion assay relative to control; format: cell-based
[9] = target: T4, 5-hydroxytryptamine receptor 2A; assay: Displacement of [125I](+/-)DOI from human recombinant 5-HT2A receptor expressed in HEK293 cells at 100 nM measured after 60 to 90 mins by radioligand completion assay relative to control; format: cell-based; conditions: time 60-90 min
[10] = target: T2, 5-hydroxytryptamine receptor 1A (Homo sapiens); assay: Displacement of [3H][…] from human recombinant 5-HT1A receptor expressed in cells at 100 nM measured after 60 to 90 mins by radioligand completion assay relative to control; format: cell-based; conditions: time 60-90 min
[11] = target: T5, 5-hydroxytryptamine receptor 2C (Homo sapiens); assay: Displacement of [125I](+/-)DOI from human recombinant 5-HT2C receptor expressed in CHO cells at 100 nM measured after 60 mins by radioligand completion assay relative to control; format: cell-based
[12] = target: T3, 5-hydroxytryptamine receptor 2B; assay: biochemical
[13] = target: T6, 5-hydroxytryptamine receptor 1A (Homo sapiens, UniProt P08908); assay: Displacement of [3H][…] from human recombinant 5-HT1A receptor expressed in CHO cells measured after 60 to 90 mins by radioligand completion assay relative to control; format: cell-based
T6 sequence (P08908 whole entry): T2 sequence (whole entry)

[14] = AUCinfinity in Sprague-Dawley rat at 5 mg/kg, iv; format: ADME, organism-based; set-up: time infinity, dose 5 mg/kg, route iv; conditions: in vivo
[15] = target: T4, 5-hydroxytryptamine receptor 2A; assay: Displacement of [3H]LSD from human recombinant 5-HT2A receptor expressed in HEK cells by radioligand completion assay relative to control; format: cell-based
[16] = target: T7, 5-hydroxytryptamine receptor 2C (Homo sapiens, UniProt P28335); assay: biochemical
T7 sequence (P28335 whole entry): T5 sequence (whole entry)

[17] = Apparent volume of distributed in Sprague-Dawley rat at 5 mg/kg, iv; format: ADME, organism-based; conditions: in vivo, read-out: Vz
[18] = tested on: Rattus norvegicus; format: functional; conditions: Sprague-Dawley, route ip, time 15 min
[19] = Clearence in Sprague-Dawley rat at 5 mg/kg, iv; format: ADME, organism-based; conditions: in vivo
[20] = target: T6, 5-hydroxytryptamine receptor 1A; assay: Displacement of [3H][…] from human recombinant 5-HT1A receptor expressed in HEK cells measured after 60 to 90 mins by radioligand completion assay relative to control; format: cell-based
[21] = target: 5-hydroxytryptamine receptor 7 (Homo sapiens, UniProt P34969); assay: biochemical
[22] = target: T3, 5-hydroxytryptamine receptor 2B; assay: Displacement of [3H]LSD from human recombinant 5-HT2B receptor expressed in CHO cells by radioligand completion assay relative to control; format: cell-based
[23] = tested on: Rattus norvegicus; format: functional; conditions: Sprague-Dawley, route iv
[24] = tested on: Rattus norvegicus; format: functional; conditions: Sprague-Dawley, route iv; remark: listed apart in the source
[25] = target: T6, 5-hydroxytryptamine receptor 1A; assay: Displacement of [3H]5-CT from human recombinant 5-HT1A receptor expressed in CHO cells measured after 60 to 90 mins by radioligand completion assay relative to control; format: cell-based
[26] = tested on: Rattus norvegicus; format: functional, organism-based; conditions: Sprague-Dawley, dose 1.0 mg/kg, route ip, time 15.0 min
[27] = AUCinfinity in Sprague-Dawley rat at […], iv; format: ADME, organism-based; conditions: in vivo

5-hydroxytryptamine receptor 1B (Rattus norvegicus), sequence (P28564 whole entry): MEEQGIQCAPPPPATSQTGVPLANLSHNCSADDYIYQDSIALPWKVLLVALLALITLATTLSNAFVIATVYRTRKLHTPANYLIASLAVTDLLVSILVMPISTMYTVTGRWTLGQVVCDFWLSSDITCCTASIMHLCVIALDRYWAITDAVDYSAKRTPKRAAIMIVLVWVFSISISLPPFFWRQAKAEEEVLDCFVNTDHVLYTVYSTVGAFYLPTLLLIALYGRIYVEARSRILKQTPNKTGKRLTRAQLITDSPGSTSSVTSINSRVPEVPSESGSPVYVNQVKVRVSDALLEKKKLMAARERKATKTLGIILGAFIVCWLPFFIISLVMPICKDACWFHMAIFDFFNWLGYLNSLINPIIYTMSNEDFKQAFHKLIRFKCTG
T3 sequence (P41595 whole entry): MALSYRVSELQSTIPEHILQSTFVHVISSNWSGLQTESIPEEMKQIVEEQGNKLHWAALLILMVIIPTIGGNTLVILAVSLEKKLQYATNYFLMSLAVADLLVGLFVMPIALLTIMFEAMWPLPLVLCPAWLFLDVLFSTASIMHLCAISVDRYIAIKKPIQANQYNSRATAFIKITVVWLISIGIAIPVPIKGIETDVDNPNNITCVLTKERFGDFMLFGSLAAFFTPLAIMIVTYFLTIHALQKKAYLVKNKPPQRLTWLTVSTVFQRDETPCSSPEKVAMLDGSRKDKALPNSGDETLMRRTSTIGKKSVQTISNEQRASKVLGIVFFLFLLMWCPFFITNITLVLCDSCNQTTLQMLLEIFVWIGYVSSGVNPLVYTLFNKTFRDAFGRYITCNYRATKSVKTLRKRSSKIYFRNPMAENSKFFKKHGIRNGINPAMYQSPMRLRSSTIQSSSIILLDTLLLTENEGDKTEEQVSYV
T4 sequence (P28223 whole entry): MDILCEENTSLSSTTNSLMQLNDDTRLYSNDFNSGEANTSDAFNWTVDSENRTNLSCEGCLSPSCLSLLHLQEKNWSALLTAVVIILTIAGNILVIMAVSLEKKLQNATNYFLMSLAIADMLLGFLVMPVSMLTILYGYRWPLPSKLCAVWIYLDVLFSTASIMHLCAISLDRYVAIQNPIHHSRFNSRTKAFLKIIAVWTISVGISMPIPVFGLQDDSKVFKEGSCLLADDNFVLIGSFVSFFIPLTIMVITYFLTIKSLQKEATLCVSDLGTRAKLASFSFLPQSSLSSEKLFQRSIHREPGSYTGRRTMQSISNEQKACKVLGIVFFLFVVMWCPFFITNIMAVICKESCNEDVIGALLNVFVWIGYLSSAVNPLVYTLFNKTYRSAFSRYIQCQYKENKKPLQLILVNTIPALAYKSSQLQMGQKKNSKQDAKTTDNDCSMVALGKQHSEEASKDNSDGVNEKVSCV
5-hydroxytryptamine receptor 7, sequence (P34969 whole entry): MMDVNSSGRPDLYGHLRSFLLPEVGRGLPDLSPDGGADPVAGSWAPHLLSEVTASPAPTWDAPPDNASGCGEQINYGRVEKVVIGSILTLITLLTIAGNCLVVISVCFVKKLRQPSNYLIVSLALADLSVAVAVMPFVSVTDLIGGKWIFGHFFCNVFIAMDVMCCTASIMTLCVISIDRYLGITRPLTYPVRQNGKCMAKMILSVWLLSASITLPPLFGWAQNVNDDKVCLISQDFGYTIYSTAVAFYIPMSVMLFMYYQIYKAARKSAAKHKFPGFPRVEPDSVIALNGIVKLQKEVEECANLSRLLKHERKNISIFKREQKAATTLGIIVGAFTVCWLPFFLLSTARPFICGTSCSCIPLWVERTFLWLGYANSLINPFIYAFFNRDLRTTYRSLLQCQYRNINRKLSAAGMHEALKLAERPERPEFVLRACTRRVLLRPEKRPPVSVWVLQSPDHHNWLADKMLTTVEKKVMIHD

SMILES: CC[C@@H]1CN2CCc3c([nH]c4cccc(OC)c34)[C@H]2C[C@@H]1/C(=C\OC)C(=O)OC
- Activity [1]: 0.7%
- Activity [2]: 33.3%
- Activity [3]: -3.4%
- Activity [4]: 16.8%
- Activity ([5]; filed as agonist): 68.1%
- Activity ([6]; filed as agonist): 47.1%
- Activity [7]: 14.3%
- Activity [8]: 11.1%
- Activity [9]: 1.5%
- Activity [10]: -4.8%
- Activity [11]: 0.4%

SMILES: CC[C@H]1CN2CCc3c([nH]c4cccc(O)c34)[C@@H]2C[C@@H]1/C(=C\OC)C(=O)OC
- Ki [12]: 508 nM
- Ki [13]: 294 nM

SMILES: CC[C@@H]1CN2CCc3c([nH]c4cccc(OC)c34)[C@@H]2C[C@@H]1/C(=C\OC)C(=O)OC
- Activity [1]: -12.7%
- Activity ([2]; filed as agonist): 76.7%
- Activity [3]: 23%
- AUC [14]: 849.8 ng·h/mL
- Activity [4]: 8.2%
- Ki [12]: 1260 nM
- Activity ([5]; filed as agonist): 49.9%
- Activity ([6]; filed as agonist): 90.7%
- Ki [15]: 5010 nM
- Activity [7]: 14.7%
- Activity [8]: -9.1%
- Activity [9]: -0.9%
- Ki [16]: > 10000 nM
- Ki [13]: 5880 nM
- Vd [17]: 8 L/kg
- ED50 [18]: 26.8 mg/kg
- Activity [10]: 9.7%
- Activity [11]: -8.2%
- CL [19]: 21.7 mL/min/kg

SMILES: C=C[C@H]1CN2CCc3c([nH]c4cccc(OC)c34)[C@@H]2C[C@@H]1/C(=C\OC)C(=O)OC
- Ki [20]: 32 nM
- Ki [12]: 83.1 nM
- Ki [21]: 870 nM
- Ki [22]: 20 nM
- Ki [15]: 815 nM
- Ki [16]: 1770 nM
- Ki [13]: 71.8 nM
- ED50 [23]: 5.45 mg/kg

SMILES: O=C1c2ccccc2S(=O)(=O)N1CCCCN1CCN(c2ncccn2)CC1 [IPSAPIRONE]
- ED50 [24]: 7.68 mg/kg
- Ki [25]: 49.7 nM
- ED50 [18]: 0.431 mg/kg
- ED50 [23]: 3.41 mg/kg
- Activity [26]: inactive

SMILES: COC(=O)C1=COC[C@H]2CN3CCc4c([nH]c5ccccc45)[C@@H]3C[C@H]12
- Activity [1]: 1.8%
- Activity ([2]; filed as agonist): 95.2%
- Activity [3]: 6.2%
- Activity [5]: 36.5%
- Activity ([6]; filed as agonist): 89.3%
- Activity [7]: -5.3%
- Activity [8]: -2.5%
- Activity [9]: 5.1%
- Activity [10]: 33.2%
- Activity [11]: -12.5%

SMILES: CC[C@H]1CN2CCc3c([nH]c4cccc(OC)c34)[C@@H]2C[C@@H]1/C(=C\OC)C(=O)OC
- Ki [20]: 38.5 nM
- Activity [1]: 1.5%
- ED50 [24]: 11.6 mg/kg
- Activity ([2]; filed as agonist): 98.7%
- Activity [4]: 30.4%
- Ki [12]: 108 nM
- Ki [22]: 23 nM
- Ki [15]: 1320 nM
- Activity ([7]; filed as agonist): 77.9%
- Activity [8]: 11.3%
- Activity [9]: 2.8%
- Ki [16]: 5430 nM
- Ki [13]: 95.5 nM
- ED50 [18]: 9.1 mg/kg
- ED50 [23]: 5.92 mg/kg
- Activity ([10]; filed as agonist): 58.9%
- AUC(0-inf) [27]: 495 ng·h/mL

SMILES: C=C[C@H]1CN2CCc3c([nH]c4cccc(O)c34)[C@@H]2C[C@@H]1/C(=C\OC)C(=O)OC
- Ki [12]: 336 nM
- Ki [13]: 97.7 nM

SMILES: CC[C@@H]1CN2CC[C@@]3(O)C(=Nc4cccc(OC)c43)[C@@H]2C[C@@H]1/C(=C\OC)C(=O)OC
- Activity [1]: 19.5%
- Activity [2]: 1.2%
- Activity [3]: -1.4%
- Activity [4]: -0.8%
- Activity [5]: 3.9%
- Activity [6]: 12.4%
- Activity [7]: -13.9%
- Activity [8]: 8.2%
- Activity [9]: -0.2%
- Activity [10]: 3.1%
- Activity [11]: -18.3%
